In the supplement of paper PMC10307832:

Experiments:
Assay in all cases: relative viability (nuclei count vs DMSO), 5 days (fraction); higher = more cells survive
[1] = compound: C(C(=O)C(=O)O)Br [Bromopyruvate] + N=C(N)NC(=N)NCCc1ccccc1 [Phenformin] (partner 250 µM)
Procedure, shortened: (§1)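 Relative viability equals treated-well nuclei counts divided by vehicle-well nuclei counts. Counts came from 4× images of lung cancer cell lines grown in 1536-well plates for 5 days after pin-tool dosing on the day after seeding. Dosing used one drug alone or a fixed anchor-drug dose plus five library-drug doses (not always all listed) in √10 steps, and values are medians of duplicate plates.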

[2] = compound: CC(O)(CS(=O)(=O)c1ccc(F)cc1)C(=O)Nc1ccc(C#N)c(C(F)(F)F)c1 [Bicalutamide] + CC(=O)Nc1cccc(-n2c(=O)n(C3CC3)c(=O)c3c(Nc4ccc(I)cc4F)n(C)c(=O)c(C)c32)c1 [Trametinib] (partner 0.02 µM)
Procedure, shortened: as §1

[3] = compound: CC(O)(CS(=O)(=O)c1ccc(F)cc1)C(=O)Nc1ccc(C#N)c(C(F)(F)F)c1 [Bicalutamide] + CS(=O)(=O)N1CCN(Cc2cc3nc(-c4cccc5[nH]ncc45)nc(N4CCOCC4)c3s2)CC1 [Pictilisib] (partner 1 µM)
Procedure, shortened: as §1

[4] = compound: CC(O)(CS(=O)(=O)c1ccc(F)cc1)C(=O)Nc1ccc(C#N)c(C(F)(F)F)c1 [Bicalutamide] + O=C(CCCCCCC(=O)Nc1ccccc1)NO [Vorinostat] (partner 1 µM)
Procedure, shortened: as §1

Cell Line	relative viability ([1]; first compound 1 µM)	relative viability ([1]; first compound 3.162 µM)	relative viability ([1]; first compound 10 µM)	relative viability ([1]; first compound 31.62 µM)	relative viability ([1]; first compound 100 µM)	relative viability ([2]; first compound 0.08 µM)	relative viability ([2]; first compound 0.253 µM)	relative viability ([2]; first compound 0.8 µM)	relative viability ([2]; first compound 2.53 µM)	relative viability ([3]; first compound 0.08 µM)	relative viability ([3]; first compound 0.253 µM)	relative viability ([3]; first compound 0.8 µM)	relative viability ([3]; first compound 2.53 µM)	relative viability ([4]; first compound 0.08 µM)	relative viability ([4]; first compound 0.253 µM)	relative viability ([4]; first compound 0.8 µM)	relative viability ([4]; first compound 2.53 µM)
201T	0.504	0.489	0.481	0.453	0.455	0.703	0.725	0.7	0.738	0.685	0.658	0.742	0.674	1.11	0.957	1.05	0.977
A549	0.17	0.16	0.0997	0.234	0.22	–	–	–	–	0.546	0.483	0.617	0.357	–	–	–	–
A-427	0.417	0.353	0.25	0.335	0.261	0.782	0.731	0.845	0.688	0.676	0.812	0.867	0.628	0.883	0.9	0.866	0.842
ABC-1	0.24	0.262	0.271	0.262	0.239	–	–	–	–	0.812	0.731	1.06	0.758	1.06	0.805	1.5	0.947
BEN	0.279	0.265	0.266	0.262	0.279	1.05	0.94	1.17	1.1	0.589	0.472	0.713	0.632	0.537	0.719	0.588	0.617
CAL-12T	0.556	0.491	0.667	0.58	0.529	0.37	0.343	0.398	0.264	0.394	0.415	0.454	0.345	0.945	0.607	0.915	0.623
COR-L23	0.433	0.435	0.459	0.411	0.227	0.616	0.545	0.71	0.579	0.896	0.724	0.945	0.765	0.443	0.486	0.411	0.267
COR-L 105	0.488	0.438	0.484	0.405	0.391	0.397	0.371	0.383	0.381	0.372	0.324	0.394	0.303	0.983	0.712	0.944	0.717
Calu-6	–	–	–	–	–	–	–	–	–	1.06	0.87	1.04	0.839	–	–	–	–
ChaGo-K-1	0.581	0.531	0.511	0.473	0.411	0.854	0.865	1.03	0.926	0.818	0.606	0.892	0.523	0.763	0.691	0.887	0.772
EBC-1	–	–	–	–	–	–	–	–	–	0.41	0.362	0.378	0.23	–	–	–	–
EKVX	0.256	0.24	0.243	0.246	0.233	0.319	0.31	0.359	0.283	0.456	0.366	0.434	0.455	0.814	0.656	0.711	0.713
EMC-BAC-2	0.517	0.519	0.637	0.548	0.571	0.911	0.771	0.891	0.728	0.517	0.531	0.527	0.456	0.5	0.434	0.833	0.289
EPLC-272H	0.31	0.314	0.309	0.367	0.347	0.315	0.281	0.332	0.281	0.311	0.266	0.329	0.33	0.437	0.401	0.573	0.479
H3255	0.365	0.421	0.432	0.399	0.37	0.666	0.567	0.717	0.569	0.521	0.376	0.48	0.462	0.808	0.755	0.969	0.69
HARA	0.496	0.431	0.503	0.483	0.476	0.942	–	0.634	0.48	0.462	0.413	0.566	0.316	0.469	0.477	0.586	0.517
HCC-15	0.472	0.5	0.521	0.466	0.456	0.384	0.338	0.412	0.371	0.714	0.699	0.951	0.77	0.746	0.761	0.954	0.899
HCC-44	0.346	0.191	0.185	0.184	0.16	1.16	1.09	1.07	1.1	0.702	0.534	0.727	0.479	1.12	1.21	1.1	1.12
HCC-78	0.644	0.719	0.759	0.516	0.657	0.94	0.653	0.86	0.779	0.202	0.179	0.208	0.169	0.489	0.436	0.462	0.447
HCC-366	0.592	0.649	0.635	0.597	0.648	0.388	0.231	0.454	0.284	0.124	0.101	0.147	0.0426	0.368	0.331	0.52	0.134
HCC-827	0.438	0.43	0.395	0.389	0.413	0.58	0.459	0.552	0.547	1.01	0.85	1.1	1.04	0.921	0.639	1.15	0.815
HOP-62	0.704	0.643	0.645	0.737	0.696	0.396	0.403	0.427	0.354	0.971	0.806	0.998	0.614	0.783	0.606	0.689	0.52

Cell Line	relative viability ([1]; first compound 1 µM)	relative viability ([1]; first compound 3.162 µM)	relative viability ([1]; first compound 10 µM)	relative viability ([1]; first compound 31.62 µM)	relative viability ([1]; first compound 100 µM)	relative viability ([2]; first compound 0.08 µM)	relative viability ([2]; first compound 0.253 µM)	relative viability ([2]; first compound 0.8 µM)	relative viability ([2]; first compound 2.53 µM)	relative viability ([3]; first compound 0.08 µM)	relative viability ([3]; first compound 0.253 µM)	relative viability ([3]; first compound 0.8 µM)	relative viability ([3]; first compound 2.53 µM)	relative viability ([4]; first compound 0.08 µM)	relative viability ([4]; first compound 0.253 µM)	relative viability ([4]; first compound 0.8 µM)	relative viability ([4]; first compound 2.53 µM)
IA-LM	–	–	–	–	–	–	–	–	–	0.368	0.389	0.422	0.507	0.985	0.803	1.16	0.892
LC-2-ad	0.564	0.621	0.576	0.599	0.525	0.892	0.86	0.961	0.907	0.536	0.459	0.637	0.502	0.767	0.679	0.67	0.556
LCLC-97TM1	0.411	0.397	0.359	0.439	0.415	0.214	0.177	0.212	0.188	0.256	0.206	0.228	0.199	0.728	0.644	0.972	0.54
LCLC-103H	0.343	0.338	0.371	0.362	0.365	0.705	0.676	0.697	0.704	0.692	0.444	0.673	0.544	0.791	0.679	0.914	0.744
LK-2	0.411	0.673	0.432	0.57	0.496	0.652	0.672	1.15	0.742	0.591	0.442	0.754	0.667	0.346	0.339	0.354	0.311
LOU-NH91	0.759	0.77	0.74	0.74	0.747	0.755	0.724	0.82	0.791	0.537	0.471	0.549	0.491	0.985	0.723	0.971	0.893
LU99A	0.751	0.753	0.89	0.921	0.794	0.529	0.445	0.6	0.495	0.295	0.321	0.364	0.209	0.461	0.436	0.626	0.43
LXF-289	0.525	0.537	0.516	0.504	0.531	0.667	0.636	0.734	0.656	0.759	0.728	0.855	0.757	0.818	0.734	0.797	0.698
NCI-H23	0.778	0.842	0.837	0.809	0.857	0.418	0.317	0.434	0.399	0.476	0.446	0.633	0.378	0.758	0.498	0.697	0.465
NCI-H322M	0.727	0.756	0.809	0.796	0.784	0.537	0.541	0.502	0.503	0.469	0.53	0.573	0.55	0.858	0.898	0.995	1.11
NCI-H358	0.406	0.327	0.351	0.304	0.315	0.161	0.128	0.125	0.132	0.385	0.361	0.301	0.303	0.804	0.604	0.662	0.544
NCI-H441	0.852	0.945	0.796	0.743	0.838	0.492	0.374	0.497	0.406	0.594	–	0.513	0.426	0.924	0.755	0.778	0.751
NCI-H460	0.512	0.556	0.658	0.494	0.508	0.139	0.129	0.128	0.129	0.343	0.335	0.478	0.356	0.763	0.439	0.92	0.779
NCI-H520	0.646	0.648	0.623	0.702	0.473	0.725	0.363	0.939	0.432	0.516	0.254	0.281	0.335	0.831	0.728	0.881	0.596
NCI-H522	0.599	0.654	0.641	0.679	0.574	0.661	0.723	0.813	0.8	–	–	–	–	1.01	0.862	0.99	0.77
NCI-H1299	–	–	–	–	–	–	–	–	–	0.909	0.698	0.823	0.492	–	–	–	–
NCI-H1563	0.621	0.748	0.643	0.673	0.657	–	–	–	–	0.641	0.596	0.644	0.599	–	–	–	–
NCI-H1648	–	–	–	–	–	–	–	0.395	0.546	–	–	–	–	–	–	0.698	0.425
NCI-H1703	–	–	–	–	–	–	–	–	–	0.235	0.261	0.236	0.231	–	–	–	–
NCI-H1792	0.227	0.345	–	0.386	0.252	0.439	0.362	0.542	0.434	0.299	0.224	0.284	0.245	–	–	–	–
NCI-H2342	0.574	0.645	0.613	0.479	0.488	0.771	0.807	0.768	0.805	–	–	–	–	0.759	0.767	0.853	0.801
SW 900	0.645	0.55	0.755	0.706	0.627	0.778	0.678	0.756	0.809	–	–	–	–	0.601	0.281	0.394	0.398
